From US20110201642A1, “Bioactive Compounds” (priority 2008, published 2011)
Read-outs that look alike come from different tables or passages of the source.

Experiments:
Assay type in all cases: cell-based
[1] = tested on: P388 murine leukemia cell line; experiment: Cytotoxicity against P388 murine leukemia cell line; conditions: for IC50: Mus musculus, P388 murine leukemia
Experimental: The Compounds A1-A5 were assayed against three cell lines: murine leukemia, P388; human breast cancer, MCF7 (ATCC HTB-22); and human colon cancer, HCT116 (ATCC CCL-247).

[2] = tested on: HCT116 (ATCC CCL-247) human colon cancer cell line; experiment: MTT cytotoxic assay against HCT116 (96 h)
Experimental: (§1) Human breast cancer, MCF7 (ATCC HTB-22) and human colon cancer, HCT116 (ATCC CCL-247) cell lines were all maintained in RPMI 1640 (Sigma), supplemented with 10% Foetal Bovine Serum (FBS, PAA Laboratories). Cells of 80-85% confluence were harvested and plated onto 96-flat bottom well plates for experimental use. In all experiments, cells were incubated in a CO2 incubator at 37° C. with 5% CO2 overnight prior to treatment.
(§2) Compounds were tested against MCF7 and HCT116 and incubated for 96 h before cytotoxic assay using the MTT (3-(4,5-dimethylthiazole-2-yl)-2,5-diphenyltetrazolium bromide) assay according to Mosmann (J. Immunol Meth. 65 (1983) 55-63). Plates were read using an Elisa plate reader at 520 nm. Data generated was used to plot a dose response curve. Cytotoxic activity was expressed as the mean concentration of extract required to kill 50% of the cell population (IC50).

[3] = tested on: MCF7 (ATCC HTB-22) human breast cancer cell line; experiment: MTT cytotoxic assay against MCF7 (96 h); conditions: for IC50: Homo sapiens, MCF7, 96 h
Experimental: as §1, §2

[4] = Homo sapiens, HCT-116, 96 h, read-out: IC50 (nM) HCT116
[5] = Homo sapiens, HCT-116, 96 h, read-out: IC50 (ng/mL) HCT116

CCC(C)C1NC(=O)C(C(O)C(C)C)NC(=O)C2CCCCN2C(=O)C(C)N(C)C(=O)C(CC(C)C)NC(=O)C(C(O)C(C)C)N(C)C(=O)C(C)N(C)C1=O (stereo not shown) [Compound A2]
IC50 ([1]; read-out: IC50 (nM) P388): 56 nM | IC50 ([1]; read-out: IC50 (ng/mL) P388): 45 ng/mL | IC50 [2, 4]: 11.6 nM | IC50 [2, 5]: 9.3 ng/mL | IC50 ([3]; read-out: IC50 (nM) MCF7): 8.3 nM | IC50 ([3]; read-out: IC50 (ng/mL) MCF7): 6.6 ng/mL

N.N.[Cl][Pt][Cl] [cisplatin, reference compound]
IC50 (ng/mL) HCT116 ([2]; HCT116 human colon cancer, MTT, 96 h): 1650 ng/mL | IC50 (ng/mL) MCF7 ([3]; MCF7 human breast cancer, MTT, 96 h): 8705 ng/mL

C=CC(C)CC1NC(=O)C(C(O)C(C)C)N(C)C(=O)C(C)N(C)C(=O)C(C(C)CC)NC(=O)C(C(O)C(C)C)NC(=O)C2CCCCN2C(=O)C(C)N(C)C1=O (stereo not shown) [Compound A3]
IC50 ([1]; read-out: IC50 (nM) P388): 1.3 nM | IC50 ([1]; read-out: IC50 (ng/mL) P388): 1 ng/mL | IC50 [2, 4]: 0.3 nM | IC50 [2, 5]: 0.2 ng/mL | IC50 ([3]; read-out: IC50 (nM) MCF7): 0.9 nM | IC50 ([3]; read-out: IC50 (ng/mL) MCF7): 0.73 ng/mL

O=c1[nH]cc(F)c(=O)[nH]1 [5-fluorouracil, reference compound]
IC50 ([2]; HCT-116, HCT116 human colon cancer, MTT, 96 h, read-out: IC50 (ng/mL) HCT116): 910 ng/mL

C=CC(C)CC1NC(=O)C(C(O)C(C)CC)N(C)C(=O)C(C)N(C)C(=O)C(C(C)CC)NC(=O)C(C(O)C(C)C)NC(=O)C2CCCCN2C(=O)C(C)N(C)C1=O (stereo not shown) [Compound A5]
IC50 ([1]; read-out: IC50 (nM) P388): 0.13 nM | IC50 ([1]; read-out: IC50 (ng/mL) P388): 0.1 ng/mL | factor between the least active, Compound A2, and the most active, Compound A5 ([1]; P388 data): ~450 | IC50 [2, 4]: 0.3 nM | IC50 [2, 5]: 0.2 ng/mL | IC50 ([3]; read-out: IC50 (nM) MCF7): 1 nM | IC50 ([3]; read-out: IC50 (ng/mL) MCF7): 0.8 ng/mL

C=CC(C)CC1NC(=O)C(C(O)C(C)C)N(C)C(=O)C(C)N(C)C(=O)C(C(C)C)NC(=O)C(C(O)C(C)C)NC(=O)C2CCCCN2C(=O)C(C)N(C)C1=O (stereo not shown) [Compound A1]
IC50 ([1]; read-out: IC50 (nM) P388): 3.8 nM | IC50 ([1]; read-out: IC50 (ng/mL) P388): 3 ng/mL | IC50 [2, 4]: 5.9 nM | IC50 [2, 5]: 4.7 ng/mL | IC50 ([3]; read-out: IC50 (nM) MCF7): 8.1 nM | IC50 ([3]; read-out: IC50 (ng/mL) MCF7): 6.5 ng/mL

CCC(C)CC1NC(=O)C(C(O)C(C)C)N(C)C(=O)C(C)N(C)C(=O)C(C(C)CC)NC(=O)C(C(O)C(C)C)NC(=O)C2CCCCN2C(=O)C(C)N(C)C1=O (stereo not shown) [Compound A4]
IC50 ([1]; read-out: IC50 (nM) P388): 24 nM | IC50 ([1]; read-out: IC50 (ng/mL) P388): 19 ng/mL | IC50 [2, 4]: 3.9 nM | IC50 [2, 5]: 3.1 ng/mL | IC50 ([3]; read-out: IC50 (nM) MCF7): 7.1 nM | IC50 ([3]; read-out: IC50 (ng/mL) MCF7): 5.7 ng/mL
